Biological target: T1, full-length beta-Catenin (Uniprot ID P35222) (Homo sapiens, UniProt P35222)
T1 construct: 10 nM full-length beta-Catenin (Uniprot ID P35222)
T1 sequence (P35222 1-781): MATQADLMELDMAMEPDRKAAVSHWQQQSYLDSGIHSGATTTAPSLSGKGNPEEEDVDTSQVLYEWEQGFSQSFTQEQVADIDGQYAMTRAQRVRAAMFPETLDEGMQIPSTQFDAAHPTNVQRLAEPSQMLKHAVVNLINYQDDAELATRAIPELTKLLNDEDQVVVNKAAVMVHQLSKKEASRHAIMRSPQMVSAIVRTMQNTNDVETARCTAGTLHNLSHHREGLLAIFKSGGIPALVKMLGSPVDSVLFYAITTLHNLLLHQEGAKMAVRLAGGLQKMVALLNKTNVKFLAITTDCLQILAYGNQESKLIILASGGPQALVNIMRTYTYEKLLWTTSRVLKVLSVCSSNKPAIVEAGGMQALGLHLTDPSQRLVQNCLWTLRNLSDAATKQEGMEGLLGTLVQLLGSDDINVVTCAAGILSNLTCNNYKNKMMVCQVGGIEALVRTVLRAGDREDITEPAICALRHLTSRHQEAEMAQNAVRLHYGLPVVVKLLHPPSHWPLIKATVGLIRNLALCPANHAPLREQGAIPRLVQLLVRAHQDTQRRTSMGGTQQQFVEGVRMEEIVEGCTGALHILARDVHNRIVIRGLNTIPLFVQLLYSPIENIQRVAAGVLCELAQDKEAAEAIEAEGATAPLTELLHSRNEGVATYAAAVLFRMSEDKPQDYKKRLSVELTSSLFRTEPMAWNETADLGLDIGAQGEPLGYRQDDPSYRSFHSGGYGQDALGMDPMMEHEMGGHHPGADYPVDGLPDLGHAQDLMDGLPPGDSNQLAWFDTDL
Experiment: Fluorescence polarization IC50 (beta-catenin / 5FAM-TCF4 10-53 competition)
Type: binding
Details: fluorescence polarization; read-out: beta-Catenin FP IC50

| IC50 | Compound |
| --- | --- |
| 0.007 µM | CC(=O)N1CCC[C@]12CC=CCCCC1(CCCC=CCCCOC(=O)N3CC[C@@](C(=O)N[C@@H](Cc4ccsc4)C(=O)N[C@@H](Cc4csc5ccccc45)C(=O)N[C@@H](Cc4c[nH]cn4)C(N)=O)(C3)NC(=O)[C@H](CCC(N)=O)NC(=O)[C@H](Cc3ccccc3)NC(=O)[C@H](C)NC(=O)[C@H](C)NC(=O)[C@H](CC(=O)O)NC(=O)[C@H](CC(=O)O)NC1=O)NC(=O)[C@H](CC(C)(C)C)NC(=O)[C@H](CC(=O)O)NC2=O (stereo partly drawn) [I-1460, Ac-PL3-Asp-Npg-B5-Asp-Asp-Ala-Ala-Phe-Gln-PyrS2-3Thi-BztA-His-NH2] |
| 0.018 µM | CC(=O)N1CCC[C@]12CC=CCCCC1(CCCC=CCCCOC(=O)N3CC[C@@](C(=O)N[C@@H](Cc4ccccc4Cl)C(=O)N[C@@H](Cc4csc5ccccc45)C(=O)N[C@@H](CCC(N)=O)C(N)=O)(C3)NC(=O)[C@H]([C@@H](C)O)NC(=O)[C@H](Cc3ccccc3)NC(=O)[C@H](C)NC(=O)[C@H](C)NC(=O)[C@H](CN(CC(=O)O)CC(F)(F)F)NC(=O)[C@H](CC(=O)O)NC1=O)NC(=O)[C@H](CC(C)(C)C)NC(=O)[C@H](CC(=O)O)NC2=O (stereo partly drawn) [I-1463, Ac-PL3-Asp-Npg-B5-Asp-TfeGA-Ala-Ala-Phe-Thr-PyrS2-2C1F-BztA-Gln-NH2] |
| 0.168 µM | CC(=O)N1CCC[C@]12CCCCCCC1(CCCCCCCCOC(=O)N3CC[C@@](C(=O)N[C@@H](Cc4ccccc4Cl)C(=O)N[C@@H](Cc4csc5ccccc45)C(=O)N[C@@H](CCC(N)=O)C(N)=O)(C3)NC(=O)[C@H](CC(N)=O)NC(=O)[C@H](Cc3ccccc3)NC(=O)[C@H](C)NC(=O)[C@H](C)NC(=O)[C@H](CC(=O)O)NC(=O)[C@H](CC(=O)O)NC1=O)NC(=O)[C@H](CC(C)(C)C)NC(=O)[C@H](CC(=O)O)NC2=O (stereo partly drawn) [I-1464, Ac-PL3-Asp-Npg-B5-Asp-Asp-Ala-Ala-Phe-Asn-PyrS2-2C1F-BztA-Gln-NH2] |
| 0.113 µM | CC(=O)N1CCC[C@]12CC=CCCCC1(CCCC=CCCCOC(=O)N3CC[C@@](C(=O)N[C@@H](Cc4ccsc4)C(=O)N[C@@H](Cc4csc5ccccc45)C(=O)N[C@@H](CCC(N)=O)C(N)=O)(C3)NC(=O)[C@H](CC(C)C)NC(=O)[C@H](Cc3ccccc3)NC(=O)[C@H](CCCCNC(=O)C34CC5(C)CC(C)(CC(C)(C5)C3)C4)NC(=O)[C@H](C)NC(=O)[C@H](CC(=O)O)NC(=O)[C@H](CC(=O)O)NC1=O)NC(=O)[C@H](CC(C)(C)C)NC(=O)[C@H](CC(=O)O)NC2=O (stereo partly drawn) [I-1475, Ac-PL3-Asp-Npg-B5-Asp-Asp-Ala-[Me3AdamantC]-Lys-Phe-Leu-PyrS2-3Thi-BztA-Gln-NH2] |
| 0.173 µM | CC(=O)N1CCC[C@]12CC=CCCCC1(CCCC=CCCCOC(=O)N3CC[C@@](C(=O)N[C@@H](Cc4ccsc4)C(=O)N[C@@H](Cc4csc5ccccc45)C(=O)N[C@@H](CCC(N)=O)C(=O)N[C@@H](CCCCNC(=O)C45CC6(C)CC(C)(CC(C)(C6)C4)C5)C(N)=O)(C3)NC(=O)[C@H](CC(C)C)NC(=O)[C@H](Cc3ccccc3)NC(=O)[C@H](C)NC(=O)[C@H](C)NC(=O)[C@H](CC(=O)O)NC(=O)[C@H](CC(=O)O)NC1=O)NC(=O)[C@H](CC(C)(C)C)NC(=O)[C@H](CC(=O)O)NC2=O (stereo partly drawn) [I-1479, Ac-PL3-Asp-Npg-B5-Asp-Asp-Ala-Ala-Phe-Leu-PyrS2-3Thi-BztA-Gln-[Me3AdamantC]-Lys-NH2] |
| 0.007 µM | CC(=O)N1CCC[C@]12CC=CCCCC1(CCCC=CCCCOC(=O)N3CC[C@@](C(=O)N[C@@H](Cc4ccsc4)C(=O)N[C@@H](Cc4csc5ccccc45)C(=O)N[C@@H](CCC(N)=O)C(N)=O)(C3)NC(=O)[C@H](CC(C)C)NC(=O)[C@H](Cc3ccccc3)NC(=O)[C@H](C)NC(=O)[C@H](CCCN3CCOCC3)NC(=O)[C@H](CC(=O)O)NC(=O)[C@H](CC(=O)O)NC1=O)NC(=O)[C@H](CC(C)(C)C)NC(=O)[C@H](CC(=O)O)NC2=O (stereo partly drawn) [I-1481, Ac-PL3-Asp-Npg-B5-Asp-Asp-MorphNva-Ala-Phe-Leu-PyrS2-3Thi-BztA-Gln-NH2] |
| 0.226 µM | CC(=O)N1CCC[C@]12CC=CCCCC1(CCCC=CCCCOC(=O)N3CC[C@@](C(=O)N[C@@H](Cc4ccccc4)C(=O)N[C@@H](Cc4csc5ccccc45)C(=O)N[C@@H](CCC(N)=O)C(N)=O)(C3)NC(=O)[C@H](CC(C)C)NC(=O)[C@H](Cc3ccc(-c4cccnc4)cc3)NC(=O)[C@H](C)NC(=O)[C@H](C)NC(=O)[C@H](CC(=O)O)NC(=O)[C@H](CC(=O)O)NC1=O)NC(=O)[C@H](CC(C)(C)C)NC(=O)[C@H](CC(=O)O)NC2=O (stereo partly drawn) [I-1490, Ac-PL3-Asp-Npg-B5-Asp-Asp-Ala-Ala-[3Py]4SF-Leu-PyrS2-Phe-BztA-Gln-NH2] |
| 0.034 µM | CC(=O)N1CCC[C@]12CC=CCCCC1(CCCC=CCCCCCC[C@@](C)(C(=O)N[C@@H](Cc3ccccc3Cl)C(=O)N[C@@H](Cc3csc4ccccc34)C(=O)N[C@H](CO)[C@@H](C)O)NC(=O)[C@H](CCO)NC(=O)[C@H](Cc3ccccc3)NC(=O)[C@H](C)NC(=O)[C@H](C)NC(=O)[C@H](CC(=O)O)NC(=O)[C@H](CC(=O)O)NC1=O)NC(=O)[C@H](CC(C)(C)C)NC(=O)[C@H](CC(=O)O)NC2=O (stereo partly drawn) [I-1491, Ac-PL3-Asp-Npg-B5-Asp-Asp-Ala-Ala-Phe-Hse-S8-2C1F-BztA-Thro1] |
| 0.048 µM | CC(=O)N1CCC[C@]12CC=CCCCC1(CCCC=CCCCOC(=O)N3CC[C@@](C(=O)N[C@@H](Cc4ccsc4)C(=O)N[C@@H](Cc4csc5ccccc45)C(=O)N[C@@H](Cc4c[nH]nn4)C(N)=O)(C3)NC(=O)[C@H](CC(C)C)NC(=O)[C@H](Cc3ccccc3)NC(=O)[C@H](C)NC(=O)[C@H](C)NC(=O)[C@H](CC(=O)O)NC(=O)[C@H](CC(=O)O)NC1=O)NC(=O)[C@H](CC(C)(C)C)NC(=O)[C@H](CC(=O)O)NC2=O (stereo partly drawn) [I-1498, Ac-PL3-Asp-Npg-B5-Asp-Asp-Ala-Ala-Phe-Leu-PyrS2-3Thi-BztA-4TriA-NH2] |
| 0.038 µM | CC(=O)N1CCC[C@]12CC=CCCCC1(CCCC=CCCCOC(=O)N3CC[C@@](C(=O)N[C@@H](Cc4ccsc4)C(=O)N[C@@H](Cc4csc5ccccc45)C(=O)N[C@@H](CCC(N)=O)C(N)=O)(C3)NC(=O)[C@H](CC(C)C)NC(=O)[C@H](Cc3ccccc3)NC(=O)[C@H](CCCN3CCN(C)CC3)NC(=O)[C@H](C)NC(=O)[C@H](CC(=O)O)NC(=O)[C@H](CC(=O)O)NC1=O)NC(=O)[C@H](CC(C)(C)C)NC(=O)[C@H](CC(=O)O)NC2=O (stereo partly drawn) [I-1503, Ac-PL3-Asp-Npg-B5-Asp-Asp-Ala-MePpzNva-Phe-Leu-PyrS2-3Thi-BztA-Gln-NH2] |
| 0.089 µM | CC(=O)N1CCC[C@]12CC=CCCCC1(CCCC=CCCCOC(=O)N3CC[C@@](C(=O)N[C@@H](Cc4ccsc4)C(=O)N[C@@H](Cc4csc5ccccc45)C(=O)N[C@@H](CCC(N)=O)C(N)=O)(C3)NC(=O)[C@H](CC(C)C)NC(=O)[C@H](Cc3ccccc3)NC(=O)[C@H](CCN3CCN(C)CC3)NC(=O)[C@H](C)NC(=O)[C@H](CC(=O)O)NC(=O)[C@H](CC(=O)O)NC1=O)NC(=O)[C@H](CC(C)(C)C)NC(=O)[C@H](CC(=O)O)NC2=O (stereo partly drawn) [I-1506, Ac-PL3-Asp-Npg-B5-Asp-Asp-Ala-MePpzAbu-Phe-Leu-PyrS2-3Thi-BztA-Gln-NH2] |

| Compound | IC50 |
| --- | --- |
| CC(=O)N1CCC[C@]12CC=CCCCC1(CCCC=CCCCOC(=O)N3CC[C@@](C(=O)N[C@@H](Cc4ccsc4)C(=O)N[C@@H](Cc4csc5ccccc45)C(=O)N[C@@H](CCC(N)=O)C(N)=O)(C3)NC(=O)[C@H](CC(C)C)NC(=O)[C@H](Cc3ccccc3)NC(=O)[C@H](C)NC(=O)[C@H](C)NC(=O)[C@H](CC(=O)O)NC(=O)[C@H](CC(=O)O)NC1=O)NC(=O)[C@H](CCCCNC(=O)CC[C@@H](C)[C@H]1CC[C@H]3[C@@H]4CC[C@@H]5C[C@H](O)CC[C@]5(C)[C@H]4CC[C@]13C)NC(=O)[C@H](CC(=O)O)NC2=O (stereo partly drawn) [I-1469, Ac-PL3-Asp-[lithocholate]-Lys-B5-Asp-Asp-Ala-Ala-Phe-Leu-PyrS2-3Thi-BztA-Gln-NH2] | 0.095 µM |
| CC(=O)N1CCC[C@]12CC=CCCCC1(CCCC=CCCCOC(=O)N3CC[C@@](C(=O)N[C@@H](Cc4ccsc4)C(=O)N[C@@H](Cc4csc5ccccc45)C(=O)N[C@@H](CCC(N)=O)C(N)=O)(C3)NC(=O)[C@H](CC(C)C)NC(=O)[C@H](Cc3ccccc3)NC(=O)[C@H](CCCCNC(=O)CC[C@@H](C)[C@H]3CC[C@H]4[C@@H]5CC[C@@H]6C[C@H](O)CC[C@]6(C)[C@H]5CC[C@]34C)NC(=O)[C@H](C)NC(=O)[C@H](CC(=O)O)NC(=O)[C@H](CC(=O)O)NC1=O)NC(=O)[C@H](CC(C)(C)C)NC(=O)[C@H](CC(=O)O)NC2=O (stereo partly drawn) [I-1473, Ac-PL3-Asp-Npg-B5-Asp-Asp-Ala-[lithocholate]-Lys-Phe-Leu-PyrS2-3Thi-BztA-Gln-NH2] | 0.224 µM |
| CC(=O)N1CCC[C@]12CC=CCCCC1(CCCC=CCCCOC(=O)N3CC[C@@](C(=O)N[C@@H](Cc4ccsc4)C(=O)N[C@@H](Cc4csc5ccccc45)C(=O)N[C@@H](CCC(N)=O)C(=O)N[C@@H](CCCCNC(=O)CC[C@@H](C)[C@H]4CC[C@H]5[C@@H]6CC[C@@H]7C[C@H](O)CC[C@]7(C)[C@H]6CC[C@]45C)C(N)=O)(C3)NC(=O)[C@H](CC(C)C)NC(=O)[C@H](Cc3ccccc3)NC(=O)[C@H](C)NC(=O)[C@H](C)NC(=O)[C@H](CC(=O)O)NC(=O)[C@H](CC(=O)O)NC1=O)NC(=O)[C@H](CC(C)(C)C)NC(=O)[C@H](CC(=O)O)NC2=O (stereo partly drawn) [I-1477, Ac-PL3-Asp-Npg-B5-Asp-Asp-Ala-Ala-Phe-Leu-PyrS2-3Thi-BztA-Gln-[lithocholate]-Lys-NH2] | 0.148 µM |

Reference: patent US20240116985A1, “STAPLED PEPTIDES AND METHODS THEREOF” (priority 2020, published 2024)
